Test results: ChEMBL document CHEMBL5537158, “Polymyxins with Potent Antibacterial Activity against Colistin-Resistant Pathogens: Fine-Tuning Hydrophobicity with Unnatural Amino Acids” (J Med Chem, 2024)
Converted amounts (≈) assume the structure as drawn. Positions of bridges follow the written chain, without caps; N, C: chain ends. Non-standard residues stand in square brackets, D forms with d. Residues, ends and D or L forms follow the SMILES beside them. *: point of attachment. Phe(3,4,5-F3) = N[C@@H](Cc1cc(F)c(F)c(F)c1)C(=O)O; Phe(4-CF3) = N[C@@H](Cc1ccc(C(F)(F)F)cc1)C(=O)O; Phe(4-Br) = N[C@@H](Cc1ccc(Br)cc1)C(=O)O; Phe(4-Cl) = N[C@@H](Cc1ccc(Cl)cc1)C(=O)O; Phe(3-F) = N[C@@H](Cc1cccc(F)c1)C(=O)O; d(hhPhe) = N[C@H](CCCc1ccccc1)C(=O)O; d(hPhe) = N[C@H](CCc1ccccc1)C(=O)O; Octanoyl = CCCCCCCC(=O)*; Dab = NCC[C@H](N)C(=O)O

What was measured:
Escherichia coli [1] = assay: Antibacterial activity against Escherichia coli ATCC 25922 assessed as bacterial growth inhibition incubated for 20 hrs by broth microdilution method; format: functional
Acinetobacter baumannii [2] = assay: Antimicrobial activity against colistin resistant Acinetobacter baumannii ATCC 3658/17 assessed as bacterial growth inhibition incubated for 20 hrs by broth microdilution method; format: functional
Acinetobacter baumannii [3] = assay: Antimicrobial activity against Acinetobacter baumannii ATCC 19606 assessed as bacterial growth inhibition incubated for 20 hrs by broth microdilution method; format: functional
[4] = Hemolytic activity in human RBC at 400 ug/ml after 1 hr; format: toxicity, cell-based, Erythrocyte; details: red blood cells (erythrocytes), at 400 µg/mL, read-out: Activity
Pseudomonas aeruginosa [5] = assay: Antimicrobial activity against Pseudomonas aeruginosa PAO1 assessed as bacterial growth inhibition incubated for 20 hrs by broth microdilution method; format: functional
Pseudomonas aeruginosa [6] = assay: Antimicrobial activity against colistin resistant Pseudomonas aeruginosa 7197/19 assessed as bacterial growth inhibition incubated for 20 hrs by broth microdilution method; format: functional
Escherichia coli [7] = assay: Antimicrobial activity against […] Escherichia coli harboring mcr-1 assessed as bacterial growth inhibition incubated for 20 hrs by broth microdilution method; format: functional

## CC(=O)N[C@H](Cc1ccc(F)cc1)C(=O)N[C@@H](CCN)C(=O)N[C@H](C(=O)N[C@@H](CCN)C(=O)N[C@H]1CCNC(=O)[C@H]([C@@H](C)O)NC(=O)[C@H](CCN)NC(=O)[C@H](CCN)NC(=O)[C@H](CC(C)C)NC(=O)[C@@H](Cc2ccccc2)NC(=O)[C@@H](CCN)NC1=O)[C@H](C)O
Escherichia coli [1]
  MIC: 0.25 µg/mL (≈ 0.197 µM)
Acinetobacter baumannii [2]
  MIC: 16 µg/mL (≈ 12.6 µM)
Acinetobacter baumannii [3]
  MIC: 2 µg/mL (≈ 1.57 µM)
[4]
  hemolysis at 1 h, 400 ug/ml: < 10%

## CC(=O)N[C@H](Cc1cccc(F)c1)C(=O)N[C@@H](CCN)C(=O)N[C@H](C(=O)N[C@@H](CCN)C(=O)N[C@H]1CCNC(=O)[C@H]([C@@H](C)O)NC(=O)[C@H](CCN)NC(=O)[C@H](CCN)NC(=O)[C@H](CC(C)C)NC(=O)[C@@H](Cc2ccccc2)NC(=O)[C@@H](CCN)NC1=O)[C@H](C)O
Escherichia coli [1]
  MIC: 0.25 µg/mL (≈ 0.197 µM)
Pseudomonas aeruginosa [5]
  MIC: 0.25 µg/mL (≈ 0.197 µM)
Acinetobacter baumannii [2]
  MIC: 16 µg/mL (≈ 12.6 µM)
Acinetobacter baumannii [3]
  MIC: 1 µg/mL (≈ 0.787 µM)
[4]
  hemolysis at 1 h, 400 ug/ml: < 10%

## CCCCCCCC(=O)N[C@@H](CCN)C(=O)N[C@H](C(=O)N[C@@H](CCN)C(=O)N[C@H]1CCNC(=O)[C@H]([C@@H](C)O)NC(=O)[C@H](CCN)NC(=O)[C@H](CCN)NC(=O)[C@H](CC(C)C)NC(=O)[C@@H](CCc2ccccc2)NC(=O)[C@H](CCN)NC1=O)[C@@H](C)O (Octanoyl-[Dab]T[Dab][Dab][Dab][d(hPhe)]L[Dab][Dab]T; lactam 4-C)
Escherichia coli [1]
  MIC: 0.25 µg/mL (≈ 0.208 µM)
Pseudomonas aeruginosa [5]
  MIC: 0.25 µg/mL (≈ 0.208 µM)
Acinetobacter baumannii [2]
  MIC: 4 µg/mL (≈ 3.32 µM)

## CCCCCCCC(=O)N[C@@H](CCN)C(=O)N[C@H](C(=O)N[C@@H](CCN)C(=O)N[C@H]1CCNC(=O)[C@H]([C@@H](C)O)NC(=O)[C@H](CCN)NC(=O)[C@H](CCN)NC(=O)[C@H](Cc2ccccc2)NC(=O)[C@@H](CCCc2ccccc2)NC(=O)[C@H](CCN)NC1=O)[C@@H](C)O (Octanoyl-[Dab]T[Dab][Dab][Dab][d(hhPhe)]F[Dab][Dab]T; lactam 4-C)
Pseudomonas aeruginosa [6]
  MIC: 0.5 µg/mL (≈ 0.4 µM)
Escherichia coli [1]
  MIC: 0.25 µg/mL (≈ 0.2 µM)
Acinetobacter baumannii [2]
  MIC: 1 µg/mL (≈ 0.799 µM)
Escherichia coli [7]
  MIC: 2 µg/mL (≈ 1.6 µM)

## CCCCCCCC(=O)N[C@@H](CCN)C(=O)N[C@H](C(=O)N[C@@H](CCN)C(=O)N[C@H]1CCNC(=O)[C@H]([C@@H](C)O)NC(=O)[C@H](CCN)NC(=O)[C@H](CCN)NC(=O)[C@H](CC(C)C)NC(=O)[C@@H](CCCc2ccccc2)NC(=O)[C@H](CCN)NC1=O)[C@@H](C)O (Octanoyl-[Dab]T[Dab][Dab][Dab][d(hhPhe)]L[Dab][Dab]T; lactam 4-C)
Pseudomonas aeruginosa [6]
  MIC: 0.5 µg/mL (≈ 0.411 µM)
Escherichia coli [1]
  MIC: < 0.125 µg/mL
Acinetobacter baumannii [3]
  MIC: < 0.125 µg/mL

## CCCCCCCC(=O)N[C@@H](CCN)C(=O)N[C@H](C(=O)N[C@@H](CCN)C(=O)N[C@H]1CCNC(=O)[C@H]([C@@H](C)O)NC(=O)[C@H](CCN)NC(=O)[C@H](CCN)NC(=O)[C@H](Cc2cc(F)c(F)c(F)c2)NC(=O)[C@@H](CC(C)C)NC(=O)[C@H](CCN)NC1=O)[C@@H](C)O (Octanoyl-[Dab]T[Dab][Dab][Dab][dL][Phe(3,4,5-F3)][Dab][Dab]T; lactam 4-C)
Pseudomonas aeruginosa [5]
  MIC: 0.25 µg/mL (≈ 0.201 µM)
Acinetobacter baumannii [2]
  MIC: 2 µg/mL (≈ 1.61 µM)
Acinetobacter baumannii [3]
  MIC: < 0.125 µg/mL

## CCCCCCCC(=O)N[C@@H](CCN)C(=O)N[C@H](C(=O)N[C@@H](CCN)C(=O)N[C@H]1CCNC(=O)[C@H]([C@@H](C)O)NC(=O)[C@H](CCN)NC(=O)[C@H](CCN)NC(=O)[C@H](Cc2cccc(F)c2)NC(=O)[C@@H](CC(C)C)NC(=O)[C@H](CCN)NC1=O)[C@@H](C)O (Octanoyl-[Dab]T[Dab][Dab][Dab][dL][Phe(3-F)][Dab][Dab]T; lactam 4-C)
Pseudomonas aeruginosa [6]
  MIC: 1 µg/mL (≈ 0.828 µM)
Escherichia coli [1]
  MIC: 0.25 µg/mL (≈ 0.207 µM)
Acinetobacter baumannii [3]
  MIC: 0.25 µg/mL (≈ 0.207 µM)
Escherichia coli [7]
  MIC: 4 µg/mL (≈ 3.31 µM)

## CCCCCCCC(=O)N[C@@H](CCN)C(=O)N[C@H](C(=O)N[C@@H](CCN)C(=O)N[C@H]1CCNC(=O)[C@H]([C@@H](C)O)NC(=O)[C@H](CCN)NC(=O)[C@H](CCN)NC(=O)[C@H](Cc2ccc(Br)cc2)NC(=O)[C@@H](CC(C)C)NC(=O)[C@H](CCN)NC1=O)[C@@H](C)O (Octanoyl-[Dab]T[Dab][Dab][Dab][dL][Phe(4-Br)][Dab][Dab]T; lactam 4-C)
Pseudomonas aeruginosa [5]
  MIC: 0.25 µg/mL (≈ 0.197 µM)
Acinetobacter baumannii [2]
  MIC: 1 µg/mL (≈ 0.788 µM)
Acinetobacter baumannii [3]
  MIC: 0.25 µg/mL (≈ 0.197 µM)

## CCCCCCCC(=O)N[C@@H](CCN)C(=O)N[C@H](C(=O)N[C@@H](CCN)C(=O)N[C@H]1CCNC(=O)[C@H]([C@@H](C)O)NC(=O)[C@H](CCN)NC(=O)[C@H](CCN)NC(=O)[C@H](Cc2ccc(C(F)(F)F)cc2)NC(=O)[C@@H](CC(C)C)NC(=O)[C@H](CCN)NC1=O)[C@@H](C)O (Octanoyl-[Dab]T[Dab][Dab][Dab][dL][Phe(4-CF3)][Dab][Dab]T; lactam 4-C)
Pseudomonas aeruginosa [5]
  MIC: 0.25 µg/mL (≈ 0.199 µM)
Acinetobacter baumannii [2]
  MIC: 1 µg/mL (≈ 0.795 µM)
Acinetobacter baumannii [3]
  MIC: < 0.125 µg/mL

## CCCCCCCC(=O)N[C@@H](CCN)C(=O)N[C@H](C(=O)N[C@@H](CCN)C(=O)N[C@H]1CCNC(=O)[C@H]([C@@H](C)O)NC(=O)[C@H](CCN)NC(=O)[C@H](CCN)NC(=O)[C@H](Cc2ccc(Cl)cc2)NC(=O)[C@@H](CC(C)C)NC(=O)[C@H](CCN)NC1=O)[C@@H](C)O (Octanoyl-[Dab]T[Dab][Dab][Dab][dL][Phe(4-Cl)][Dab][Dab]T; lactam 4-C)
Pseudomonas aeruginosa [5]
  MIC: 0.25 µg/mL (≈ 0.204 µM)
Acinetobacter baumannii [2]
  MIC: 1 µg/mL (≈ 0.817 µM)
Acinetobacter baumannii [3]
  MIC: 0.125 µg/mL (≈ 0.102 µM)
